Assays:
Assay type in all cases: in vivo
[1] = system: corn (Zea mays); experiment: Test G Pre-Emergence Protocol; conditions: Zea mays, pre-emergence, 312 h, evaluated after 13 days; for plant injury at 15.625 g/ha: 15.625 g ai/ha; for plant injury at 15.625 g/ha / plant injury at 250 g/ha: read-out: Corn damage rating (100=total damage to plant; 0=no damage to plant); for plant injury at 62.5 g/ha: 62.5 g ai/ha, 100=total damage to plant, 0=no damage to plant, read-out: plant damage rating, Corn; for plant injury at 250 g/ha: 250 g ai/ha
Summary of the method: (§1)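 Glasshouse pre-emergence test: soil-sown seeds, sprayed after 1 d at 15.625, 62.5 or 250 g/ha. Conditions 24/16° C day/night, 14 h light, 65% humidity, watering twice daily. Rating 13 d post-spray (100 = total damage).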

[2] = system: redroot pigweed (Amaranthus retroflexus); experiment: Test G Pre-Emergence Protocol; conditions: Amaranthus retroflexus, pre-emergence, 312 h, evaluated after 13 days; for pest or weed control at 15.625 g/ha: 15.625 g ai/ha; for pest or weed control at 15.625 g/ha / pest or weed control at 250 g/ha: read-out: Pigweed, Redroot damage rating (100=total damage to plant; 0=no damage to plant); for pest or weed control at 62.5 g/ha: 62.5 g ai/ha, 100=total damage to plant, 0=no damage to plant, read-out: plant damage rating, Pigweed, Redroot; for pest or weed control at 250 g/ha: 250 g ai/ha
Summary of the method: as §1

[3] = system: velvetleaf (Abutilon theophrasti); experiment: Test G Pre-Emergence Protocol; conditions: Abutilon theophrasti, pre-emergence, 312 h, evaluated after 13 days; for pest or weed control at 15.625 g/ha: 15.625 g ai/ha; for pest or weed control at 15.625 g/ha / pest or weed control at 250 g/ha: read-out: Velvetleaf damage rating (100=total damage to plant; 0=no damage to plant); for pest or weed control at 62.5 g/ha: 62.5 g ai/ha, 100=total damage to plant, 0=no damage to plant, read-out: plant damage rating, Velvetleaf; for pest or weed control at 250 g/ha: 250 g ai/ha
Summary of the method: as §1

[4] = system: ivy-leaved morning glory (Ipomoea hederacea); experiment: Test G Pre-Emergence Protocol; conditions: Ipomoea, pre-emergence, 312 h, evaluated after 13 days; for pest or weed control at 15.625 g/ha: 15.625 g ai/ha, read-out: Morning-glory, Ivy-leaved damage rating (100=total damage to plant; 0=no damage to plant); for pest or weed control at 62.5 g/ha: 62.5 g ai/ha, 100=total damage to plant, 0=no damage to plant, read-out: plant damage rating, Morningglory, Ivy-leaved; for pest or weed control at 250 g/ha: 250 g ai/ha, read-out: Morningglory, Ivy-leaved damage rating (100=total damage to plant; 0=no damage to plant)
Summary of the method: as §1

[5] = system: barnyardgrass (Echinochloa crus-galli); experiment: Test G Pre-Emergence Protocol; conditions: Echinochloa crus-galli, pre-emergence, 312 h, evaluated after 13 days; for pest or weed control at 15.625 g/ha: 15.625 g ai/ha, read-out: Barnyard grass damage rating (100=total damage to plant; 0=no damage to plant); for pest or weed control at 62.5 g/ha: 62.5 g ai/ha, 100=total damage to plant, 0=no damage to plant, read-out: plant damage rating, Barnyardgrass; for pest or weed control at 250 g/ha: 250 g ai/ha, read-out: Barnyardgrass damage rating (100=total damage to plant; 0=no damage to plant)
Summary of the method: as §1

[6] = system: giant foxtail (Setaria faberi); experiment: Test G Pre-Emergence Protocol; conditions: Setaria faberi, pre-emergence, 312 h, evaluated after 13 days; for pest or weed control at 15.625 g/ha: 15.625 g ai/ha; for pest or weed control at 15.625 g/ha / pest or weed control at 250 g/ha: read-out: Foxtail, Giant damage rating (100=total damage to plant; 0=no damage to plant); for pest or weed control at 62.5 g/ha: 62.5 g ai/ha, 100=total damage to plant, 0=no damage to plant, read-out: plant damage rating, Foxtail, Giant; for pest or weed control at 250 g/ha: 250 g ai/ha
Summary of the method: as §1

[7] = system: corn (Zea mays); experiment: Test G Post-Emergence Protocol; conditions: Zea mays, post-emergence, 312 h; for plant injury at 15.625 g/ha: 15.625 g ai/ha, evaluated after 13 days (100=total damage to plant; 0=no damage to plant), read-out: Corn damage rating; for plant injury at 62.5 g/ha: 62.5 g ai/ha, read-out: Corn damage rating (100=total damage to plant; 0=no damage to plant); for plant injury at 62.5 g/ha / plant injury at 250 g/ha: evaluated after 13 days; for plant injury at 250 g/ha: 250 g ai/ha, read-out: damage to plant, Corn (100=total damage to plant; 0=no damage to plant)
Summary of the method: (§2)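 Damage was rated 13 days after treatment from 0 (none) to 100 (plant killed). Compound was applied as a spray at 15.625, 62.5 or 250 g/ha in 50:50 acetone/water containing 0.5% Tween 20, onto 8-day-old potted plants kept in a glasshouse (24/16 °C, 14 h light, 65% humidity).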

[8] = system: redroot pigweed (Amaranthus retroflexus); experiment: Test G Post-Emergence Protocol; conditions: Amaranthus retroflexus, post-emergence, 312 h; for pest or weed control at 15.625 g/ha: 15.625 g ai/ha, evaluated after 13 days (100=total damage to plant; 0=no damage to plant), read-out: Pigweed, Redroot damage rating; for pest or weed control at 62.5 g/ha: 62.5 g ai/ha, read-out: Pigweed, Redroot damage rating (100=total damage to plant; 0=no damage to plant); for pest or weed control at 62.5 g/ha / pest or weed control at 250 g/ha: evaluated after 13 days; for pest or weed control at 250 g/ha: 250 g ai/ha, read-out: damage to plant, Pigweed, Redroot (100=total damage to plant; 0=no damage to plant)
Summary of the method: as §2

[9] = system: velvetleaf (Abutilon theophrasti); experiment: Test G Post-Emergence Protocol; conditions: Abutilon theophrasti, post-emergence, 312 h; for pest or weed control at 15.625 g/ha: 15.625 g ai/ha, evaluated after 13 days (100=total damage to plant; 0=no damage to plant), read-out: Velvetleaf damage rating; for pest or weed control at 62.5 g/ha: 62.5 g ai/ha, read-out: Velvetleaf damage rating (100=total damage to plant; 0=no damage to plant); for pest or weed control at 62.5 g/ha / pest or weed control at 250 g/ha: evaluated after 13 days; for pest or weed control at 250 g/ha: 250 g ai/ha, read-out: damage to plant, Velvetleaf (100=total damage to plant; 0=no damage to plant)
Summary of the method: as §2

[10] = system: ivy-leaved morning glory (Ipomoea hederacea); experiment: Test G Post-Emergence Protocol; conditions: Ipomoea, post-emergence, 312 h; for pest or weed control at 15.625 g/ha: 15.625 g ai/ha, evaluated after 13 days (100=total damage to plant; 0=no damage to plant), read-out: Morningglory, Ivy-leaved damage rating; for pest or weed control at 62.5 g/ha: 62.5 g ai/ha, read-out: Morningglory, Ivy-leaved damage rating (100=total damage to plant; 0=no damage to plant); for pest or weed control at 62.5 g/ha / pest or weed control at 250 g/ha: evaluated after 13 days; for pest or weed control at 250 g/ha: 250 g ai/ha, read-out: damage to plant, Morningglory, Ivy-leaved (100=total damage to plant; 0=no damage to plant)
Summary of the method: as §2

[11] = system: barnyardgrass (Echinochloa crus-galli); experiment: Test G Post-Emergence Protocol; conditions: Echinochloa crus-galli, post-emergence, 312 h; for pest or weed control at 15.625 g/ha: 15.625 g ai/ha, evaluated after 13 days (100=total damage to plant; 0=no damage to plant), read-out: Barnyardgrass damage rating; for pest or weed control at 62.5 g/ha: 62.5 g ai/ha, read-out: Barnyardgrass damage rating (100=total damage to plant; 0=no damage to plant); for pest or weed control at 62.5 g/ha / pest or weed control at 250 g/ha: evaluated after 13 days; for pest or weed control at 250 g/ha: 250 g ai/ha, read-out: damage to plant, Barnyardgrass (100=total damage to plant; 0=no damage to plant)
Summary of the method: as §2

[12] = system: giant foxtail (Setaria faberi); experiment: Test G Post-Emergence Protocol; conditions: Setaria faberi, post-emergence, 312 h; for pest or weed control at 15.625 g/ha: 15.625 g ai/ha, evaluated after 13 days (100=total damage to plant; 0=no damage to plant), read-out: Foxtail, Giant damage rating; for pest or weed control at 62.5 g/ha: 62.5 g ai/ha, read-out: Foxtail, Giant damage rating (100=total damage to plant; 0=no damage to plant); for pest or weed control at 62.5 g/ha / pest or weed control at 250 g/ha: evaluated after 13 days; for pest or weed control at 250 g/ha: 250 g ai/ha, read-out: damage to plant, Foxtail, Giant (100=total damage to plant; 0=no damage to plant)
Summary of the method: as §2

Structure (SMILES): Cc1nc(NC(=O)[C@@H]2C(=O)N(C)C[C@H]2c2ccc(C(F)(F)F)cc2)ccc1F (racemic) [Compound 1613]
- plant injury at 15.625 g/ha [1]: 0%
- plant injury at 62.5 g/ha [1]: 0%
- plant injury at 250 g/ha [1]: 0%
- pest or weed control at 15.625 g/ha [2]: 0%
- pest or weed control at 62.5 g/ha [2]: 0%
- pest or weed control at 250 g/ha [2]: 10%
- pest or weed control at 15.625 g/ha [3]: 0%
- pest or weed control at 62.5 g/ha [3]: 0%
- pest or weed control at 250 g/ha [3]: 10%
- pest or weed control at 15.625 g/ha [4]: 0%
- pest or weed control at 62.5 g/ha [4]: 0%
- pest or weed control at 250 g/ha [4]: 0%
- pest or weed control at 15.625 g/ha [5]: 0%
- pest or weed control at 62.5 g/ha [5]: 0%
- pest or weed control at 250 g/ha [5]: 70%
- pest or weed control at 15.625 g/ha [6]: 0%
- pest or weed control at 62.5 g/ha [6]: 50%
- pest or weed control at 250 g/ha [6]: 90%
- plant injury at 15.625 g/ha [7]: 0%
- plant injury at 62.5 g/ha [7]: 0%
- plant injury at 250 g/ha [7]: 0%
- pest or weed control at 15.625 g/ha [8]: 0%
- pest or weed control at 62.5 g/ha [8]: 50%
- pest or weed control at 250 g/ha [8]: 60%
- pest or weed control at 15.625 g/ha [9]: 0%
- pest or weed control at 62.5 g/ha [9]: 20%
- pest or weed control at 250 g/ha [9]: 30%
- pest or weed control at 15.625 g/ha [10]: 0%
- pest or weed control at 62.5 g/ha [10]: 0%
- pest or weed control at 250 g/ha [10]: 0%
- pest or weed control at 15.625 g/ha [11]: 0%
- pest or weed control at 62.5 g/ha [11]: 20%
- pest or weed control at 250 g/ha [11]: 60%
- pest or weed control at 15.625 g/ha [12]: 20%
- pest or weed control at 62.5 g/ha [12]: 70%
- pest or weed control at 250 g/ha [12]: 80%

Structure (SMILES): CN1C[C@@H](c2ccc(C(F)(F)F)cc2)[C@H](C(=O)Nc2cccc(F)c2C#N)C1=O (racemic) [Compound 1637]
- plant injury at 15.625 g/ha [1]: 0%
- plant injury at 62.5 g/ha [1]: 0%
- plant injury at 250 g/ha [1]: 30%
- pest or weed control at 15.625 g/ha [2]: 20%
- pest or weed control at 62.5 g/ha [2]: 50%
- pest or weed control at 250 g/ha [2]: 60%
- pest or weed control at 15.625 g/ha [3]: 0%
- pest or weed control at 62.5 g/ha [3]: 0%
- pest or weed control at 250 g/ha [3]: 0%
- pest or weed control at 15.625 g/ha [4]: 0%
- pest or weed control at 62.5 g/ha [4]: 0%
- pest or weed control at 250 g/ha [4]: 0%
- pest or weed control at 15.625 g/ha [5]: 20%
- pest or weed control at 62.5 g/ha [5]: 30%
- pest or weed control at 250 g/ha [5]: 80%
- pest or weed control at 15.625 g/ha [6]: 60%
- pest or weed control at 62.5 g/ha [6]: 90%
- pest or weed control at 250 g/ha [6]: 90%
- plant injury at 15.625 g/ha [7]: 0%
- plant injury at 62.5 g/ha [7]: 0%
- plant injury at 250 g/ha [7]: 10%
- pest or weed control at 15.625 g/ha [8]: 40%
- pest or weed control at 62.5 g/ha [8]: 70%
- pest or weed control at 250 g/ha [8]: 70%
- pest or weed control at 15.625 g/ha [9]: 0%
- pest or weed control at 62.5 g/ha [9]: 10%
- pest or weed control at 250 g/ha [9]: 30%
- pest or weed control at 15.625 g/ha [10]: 0%
- pest or weed control at 62.5 g/ha [10]: 20%
- pest or weed control at 250 g/ha [10]: 30%
- pest or weed control at 15.625 g/ha [11]: 20%
- pest or weed control at 62.5 g/ha [11]: 70%
- pest or weed control at 250 g/ha [11]: 70%
- pest or weed control at 15.625 g/ha [12]: 60%
- pest or weed control at 62.5 g/ha [12]: 80%
- pest or weed control at 250 g/ha [12]: 80%

Source: patent US12077503B2, “Substituted cyclic amides and their use as herbicides” (FMC CORPORATION, priority 2015, dated 2024)
